Molecules are shown by their SMILES. Numbered stars: 1 amine (or outer) side, 2 acyl side, 3 side chain; on linkers, the order of the positions; unused ones are H or OH. Bridge positions count the residues as written; N and C are the ends. Square brackets hold non-standard residues; d marks the D form. Peptide text beside a SMILES is read from it. * marks the point of attachment. hPhe(3-Cl-4-CF3) = N[C@@H](CCc1ccc(C(F)(F)F)c(Cl)c1)C(=O)O; hPhe(3-F,4-CF3) = N[C@@H](CCc1ccc(C(F)(F)F)c(F)c1)C(=O)O; NMePhe(3-Cl) = CN[C@@H](Cc1cccc(Cl)c1)C(=O)O; NMeMet(O2) = CN[C@@H](CCS(C)(=O)=O)C(=O)O; NMedβ3hAla = C[C@H](CC(=O)[*:2])N(C)[*:1]; NMeGly(cPent) = CN[C@H](C(=O)O)C1CCCC1; Phe(3-I) = N[C@@H](Cc1cccc(I)c1)C(=O)O; Phe(4-Me) = Cc1ccc(C[C@H](N)C(=O)O)cc1; NMeGly(cBu) = CN[C@H](C(=O)O)C1CCC1; NMeCha = CN[C@@H](CC1CCCCC1)C(=O)O; NMeE = CN[C@@H](CCC(=O)O)C(=O)O; NMeD = CN[C@@H](CC(=O)O)C(=O)O; NMeL = CN[C@@H](CC(C)C)C(=O)O; NMeV = CN[C@H](C(=O)O)C(C)C; d(β3hA) = C[C@@H](N)CC(=O)O; NMeA = CN[C@@H](C)C(=O)O; NMeAib = CNC(C)(C)C(=O)O; Piperidide = C1CCN(*)CC1; Ac5c = NC1(C(=O)O)CCCC1; Aze = O=C(O)[C@@H]1CCN1; Sar = CNCC(=O)O Some results are limits rather than exact numbers.

The assay has as its system Human pancreatic cancer cell line AsPC-1 (G12D mutation Kras). In words: AsPC-1 cell growth inhibition (AsPC-1 CGI). It is filed as cell-based. The following applies: read-out: AsPC-1 cell growth inhibition, 50% growth inhibitory concentration (IC50 value); 96 hours, CellTiter-Glo, values classified in ranges. A general note: Cellular ATP, detected with luciferase, serves as a proxy for viable cell number.
Description: Test compounds were serially dilated with dimethyl sulfoxide, and 200 nL was then dispensed to a U-bottom 96-well plate using Labcyte Echo. […] The cell suspension was dispensed to a. plate containing a test compound at 100 μL per well and incubated at 37° C. in a 5% carbon dioxide gas incubator. 96 hours later, 80 μL of CellTiter-Glo (Promega) was added to each well and fluorescence was measured.
Consider `CC[C@H](C)[C@@H]1NC(=O)[C@H](CC(C)C)N(C)C(=O)C[C@@H](C(=O)N2CCCCC2)N(C)C(=O)[C@H](CCS(C)(=O)=O)N(C)C(=O)C2(CCCC2)NC(=O)[C@@H]2CCCN2C(=O)[C@H](CCc2ccc(C(F)(F)F)c(Cl)c2)NC(=O)CN(C)C(=O)[C@H](CC2CCCCC2)N(C)C(=O)CN(C)C(=O)CN(C)C1=O` [Compound 162] ([NMeL]I[Sar][Sar][NMeCha][Sar][hPhe(3-Cl-4-CF3)]P[Ac5c][NMeMet(O2)][NMeD]-Piperidide; lactam N-11), for which the IC50 was more than 500 nM. The same measure for `CC[C@H](C)[C@@H]1NC(=O)[C@H](CC(C)C)N(C)C(=O)C[C@@H](C(=O)N2CCCCC2)N(C)C(=O)[C@H](CC(C)C)NC(=O)C(C)(C)N(C)C(=O)[C@H](Cc2ccc(C)cc2)NC(=O)[C@H](Cc2cccc(I)c2)NC(=O)CN(C)C(=O)[C@H](CC2CCCCC2)N(C)C(=O)CN(C)C(=O)CN(C)C1=O` [Compound 166] ([NMeL]I[Sar][Sar][NMeCha][Sar][Phe(3-I)][Phe(4-Me)][NMeAib]L[NMeD]-Piperidide; lactam N-11): more than 500 nM. The same measure for `CC[C@H](C)[C@@H]1NC(=O)[C@H](CC(C)C)N(C)C(=O)C[C@@H](C(=O)N2CCCCC2)N(C)C(=O)[C@H](CC(C)C)NC(=O)C(C)(C)N(C)C(=O)[C@H](Cc2ccc(OC)cc2)NC(=O)[C@H](Cc2cccc(I)c2)NC(=O)CN(C)C(=O)[C@H](CC2CCCCC2)N(C)C(=O)[C@@H]2CCN2C(=O)[C@H](C)N(C)C1=O` [Compound 169] ([NMeL]I[NMeA][Aze][NMeCha][Sar][Phe(3-I)]Y(Me)[NMeAib]L[NMeD]-Piperidide; lactam N-11): more than 500 nM; for `CC[C@H](C)[C@@H]1NC(=O)[C@H](CC(C)C)N(C)C(=O)C[C@@H](C)N(C)C(=O)[C@H](CC(C)C)NC(=O)C(C)(C)N(C)C(=O)[C@H](CC(C)C)NC(=O)[C@H](CCc2ccc(C(F)(F)F)c(F)c2)NC(=O)CN(C)C(=O)[C@H](CC2CCCCC2)N(C)C(=O)[C@@H]2CCN2C(=O)CN(C)C1=O` [Compound 178] (cyclo([Aze][NMeCha][Sar][hPhe(3-F,4-CF3)]L[NMeAib]L[NMedβ3hAla][NMeL]I[Sar])): more than 500 nM; for `CC[C@H](C)[C@@H]1NC(=O)[C@H](CC(C)C)N(C)C(=O)C[C@@H](C(=O)N(C)C)N(C)C(=O)[C@H](C2CCCC2)N(C)C(=O)C2(CCCC2)NC(=O)[C@H](Cc2cccc(Cl)c2)N(C)C(=O)[C@H](CCc2ccc(C(F)(F)F)c(Cl)c2)NC(=O)CN(C)C(=O)[C@H](CC2CCCCC2)N(C)C(=O)[C@@H]2CCN2C(=O)[C@H](C)N(C)C1=O` [Compound 179] ([NMeL]I[NMeA][Aze][NMeCha][Sar][hPhe(3-Cl-4-CF3)][NMePhe(3-Cl)][Ac5c][NMeGly(cPent)][NMeD]-NMe2; lactam N-11): more than 500 nM. Consider `CC[C@H](C)[C@@H]1NC(=O)[C@H](CC(C)C)N(C)C(=O)C[C@@H](C(=O)N2CCCCC2)N(C)C(=O)[C@H](C(C)C)N(C)C(=O)C2(CCCC2)NC(=O)[C@@H]2CCCN2C(=O)[C@H](CCc2ccc(C(F)(F)F)c(Cl)c2)NC(=O)CN(C)C(=O)[C@H](CC2CCCCC2)N(C)C(=O)[C@@H]2CCN2C(=O)[C@H](CCC(=O)NC)N(C)C1=O` [Compound 180] ([NMeL]I[NMeE](NHMe)[Aze][NMeCha][Sar][hPhe(3-Cl-4-CF3)]P[Ac5c][NMeV][NMeD]-Piperidide; lactam N-11), for which the IC50 was more than 500 nM. For `CC[C@H](C)[C@@H]1NC(=O)[C@H](CC(C)C)N(C)C(=O)C[C@@H](C)NC(=O)[C@H](C2CCC2)N(C)C(=O)C2(CCCC2)NC(=O)[C@@H]2CCCN2C(=O)[C@H](CCc2ccc(C(F)(F)F)c(Cl)c2)NC(=O)CN(C)C(=O)[C@H](CC2CCCCC2)N(C)C(=O)CN(C)C(=O)CN(C)C1=O` [Compound 183] (cyclo([Ac5c][NMeGly(cBu)][d(β3hA)][NMeL]I[Sar][Sar][NMeCha][Sar][hPhe(3-Cl-4-CF3)]P)) the value was more than 500 nM.

As for `CC[C@H](C)[C@@H]1NC(=O)[C@H](CC(C)C)N(C)C(=O)C[C@@H](C)NC(=O)[C@H](C(C)C)N(C)C(=O)C2(CCCC2)NC(=O)[C@@H]2CCCN2C(=O)[C@H](CCc2ccc(C(F)(F)F)c(Cl)c2)NC(=O)CN(C)C(=O)[C@H](CC2CCCCC2)N(C)C(=O)CN(C)C(=O)[C@@H]2CCCN2C1=O` [Compound 185] (cyclo([Ac5c][NMeV][d(β3hA)][NMeL]IP[Sar][NMeCha][Sar][hPhe(3-Cl-4-CF3)]P)), the IC50 is more than 500 nM. The same measure for `CC[C@H](C)[C@@H]1NC(=O)[C@H](C)N(C)C(=O)C[C@@H](C)NC(=O)[C@H](C2CCCC2)N(C)C(=O)C2(CCCC2)NC(=O)[C@@H]2CCCN2C(=O)[C@H](CCc2ccc(C(F)(F)F)c(Cl)c2)NC(=O)CN(C)C(=O)[C@H](Cc2cccc(Cl)c2)N(C)C(=O)[C@@H]2CCCN2C(=O)CN(C)C1=O` [Compound 186] (cyclo([Ac5c][NMeGly(cPent)][d(β3hA)][NMeA]I[Sar]P[NMePhe(3-Cl)][Sar][hPhe(3-Cl-4-CF3)]P)): more than 500 nM.

The values above are taken from patent US20240148821A1, “PHARMACEUTICAL USE OF CYCLIC PEPTIDE COMPOUND” (CHUGAI SEIYAKU KABUSHIKI KAISHA, priority 2021, published 2024).
